ChEMBL document CHEMBL1811863, “New 5-deoxyflavonoids and their inhibitory effects on protein tyrosine phosphatase 1B (PTP1B) activity” (Bioorg Med Chem, 2011)

Target: T1, Tyrosine-protein phosphatase non-receptor type 1 (Homo sapiens, UniProt P18031)
T1 sequence (P18031 whole entry): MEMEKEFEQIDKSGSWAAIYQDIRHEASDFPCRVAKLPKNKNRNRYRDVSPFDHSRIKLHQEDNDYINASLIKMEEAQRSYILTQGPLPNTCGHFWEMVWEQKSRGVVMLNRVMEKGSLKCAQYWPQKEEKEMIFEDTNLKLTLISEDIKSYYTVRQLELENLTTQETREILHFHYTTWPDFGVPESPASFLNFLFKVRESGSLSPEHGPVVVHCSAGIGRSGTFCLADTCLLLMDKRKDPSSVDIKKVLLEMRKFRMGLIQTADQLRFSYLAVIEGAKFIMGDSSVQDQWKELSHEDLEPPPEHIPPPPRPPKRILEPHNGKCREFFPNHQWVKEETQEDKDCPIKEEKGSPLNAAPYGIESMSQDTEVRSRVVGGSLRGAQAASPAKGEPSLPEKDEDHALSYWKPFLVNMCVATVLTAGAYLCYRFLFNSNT
Experiment: Inhibition of human recombinant PTP1B assessed as p-nitorphenol production after 30 mins

| IC50 [µM] | SMILES |
| --- | --- |
| 98.1 | COc1cc([C@@H]2CC(=O)c3ccc(O)cc3O2)ccc1O |
| 16.5 | COc1ccc(C2CC(=O)c3ccc(O)cc3O2)cc1CC=C(C)C (configuration not stated) |
| 29.2 | CC(C)=CCc1cc([C@@H]2CC(=O)c3ccc(O)cc3O2)ccc1O [ABYSSINONE II] |
| 22.6 | CC(C)=CCc1cc([C@@H]2CC(=O)c3c(O)cc(O)cc3O2)cc(CC=C(C)C)c1O [ABYSSINONE V] |
| 72.9 | CC(C)=CCc1cc([C@@H]2CC(=O)c3ccc(O)cc3O2)cc2c1OC(C)(C)C=C2 [ABYSSINONES III] |
| 15.2 | COc1cc(OC)c([C@H]2COc3cc(O)ccc3C2=O)cc1CC=C(C)C [ERYTHRIBYSSIN E] |
| 35.8 | CC(C)=CCc1cc([C@@H]2CC(=O)c3ccc(O)cc3O2)cc2c1OC(C)(C)C(O)C2 (some centres not stated) [ERYTHRIBYSSIN G] |
| > 100 | CC1(C)Oc2ccc([C@@H]3CC(=O)c4ccc(O)cc4O3)cc2CC1O (some centres not stated) [ERYTHRIBYSSIN I] |
| 14.9 | COc1cc(O)c([C@]2(O)COc3cc(O)ccc3C2=O)cc1CC=C(C)C [ERYTHRIBYSSIN J] |
| > 100 | O=Cc1cc([C@@H]2CC(=O)c3ccc(O)cc3O2)ccc1O [ERYTHRIBYSSIN K] |
| > 100 | O=C1C[C@@H](c2ccc(O)cc2)Oc2cc(O)ccc21 [LIQUIRTIGENIN] |
| 17.2 | COc1cc(O)c(C2COc3cc(O)ccc3C2=O)cc1CC=C(C)C (configuration not stated) [PROSTRATOL C] |
